In US20240190880A1 (THE REGENTS OF THE UNIVERSITY OF MICHIGAN, priority 2021, published 2024):

Target: T1, ER (Homo sapiens, UniProt P03372)
T1 construct: host or cells: T47D and MCF7 human breast cancer cells
T1 sequence (P03372 1-595): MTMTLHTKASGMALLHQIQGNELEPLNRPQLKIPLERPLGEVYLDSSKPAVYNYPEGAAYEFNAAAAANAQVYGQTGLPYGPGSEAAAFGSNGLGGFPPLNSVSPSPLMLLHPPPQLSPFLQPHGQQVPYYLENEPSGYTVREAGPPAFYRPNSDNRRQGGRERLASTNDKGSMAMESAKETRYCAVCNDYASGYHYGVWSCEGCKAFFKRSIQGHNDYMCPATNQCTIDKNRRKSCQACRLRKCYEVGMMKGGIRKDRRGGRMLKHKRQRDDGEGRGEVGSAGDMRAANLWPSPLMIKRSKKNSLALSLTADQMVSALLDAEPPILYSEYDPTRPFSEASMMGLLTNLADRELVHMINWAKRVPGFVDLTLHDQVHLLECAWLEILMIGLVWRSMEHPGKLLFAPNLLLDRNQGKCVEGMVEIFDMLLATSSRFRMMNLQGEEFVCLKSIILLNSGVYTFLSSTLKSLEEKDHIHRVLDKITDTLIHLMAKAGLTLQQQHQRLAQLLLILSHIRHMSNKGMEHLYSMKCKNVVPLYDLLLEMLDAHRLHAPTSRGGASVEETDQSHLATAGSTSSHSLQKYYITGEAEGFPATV
Test: ER degradation activity, in-cell western blot analysis in T47D cells
Format: cell-based
Conditions: 16 hours, Table A does not say which cell line (T47D or MCF7), read-out: Potency (DC50)
Procedure, shortened: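 T47D cells grown in DMEM with 10% FBS were treated with compounds for 16 hours at 0.5% DMSO final. ER was detected by in-cell western using 680/800 near-infrared secondary antibodies. Residual ER is given as percent of untreated and DMSO-treated wells set to 100%.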

Row | SMILES | DC50 [nM]
1 | C[C@@H]1Cc2c([nH]c3ccccc23)[C@@H](c2c(F)cc(N3CCC4(CC3)CC(C(=O)N3CCC(N5Cc6cc7c(cc6C5)C(=O)N(C5CCC(=O)NC5=O)C7)CC3)C4)cc2F)N1CC(F)F (stereo partly drawn) [E 101, 3-(6-(1-(7-(4-((1R,3R)-2-(2,2-difluoroethyl)-3-methyl-2,3,4,9-tetrahydro-1H-pyrido[3,4-b]indol-1-yl)-3,5-difluorophenyl)-7-azaspiro[3.5]nonane-2-carbonyl)piperidin-4-yl)-1-oxo-3,5,6,7-tetrahydropyrrolo[3,4-f]isoindol-2(1H)-yl)piperidine-2,6-dione] | < 10
2 | C[C@@H]1Cc2c([nH]c3ccccc23)[C@@H](c2c(F)cc(N3CC(CC(=O)N4Cc5cc6c(cc5C4)C(=O)N(C4CCC(=O)NC4=O)C6)C3)cc2F)N1CC(F)F (stereo partly drawn) [E 102, 3-(6-(2-(1-(4-((1R,3R)-2-(2,2-difluoroethyl)-3-methyl-2,3,4,9-tetrahydro-1H-pyrido[3,4-b]indol-1-yl)-3,5-difluorophenyl)azetidin-3-yl)acetyl)-1-oxo-3,5,6,7-tetrahydropyrrolo[3,4-f]isoindol-2(1H)-yl)piperidine-2,6-dione] | > 100
3 | C[C@@H]1Cc2c([nH]c3ccccc23)[C@@H](c2c(F)cc(N3CC(CC(=O)N4CC(N5Cc6cc7c(cc6C5)C(=O)N(C5CCC(=O)NC5=O)C7)C4)C3)cc2F)N1CC(F)F (stereo partly drawn) [E 103, 3-(6-(1-(2-(1-(4-((1R,3R)-2-(2,2-difluoroethyl)-3-methyl-2,3,4,9-tetrahydro-1H-pyrido[3,4-b]indol-1-yl)-3,5-difluorophenyl)azetidin-3-yl)acetyl)azetidin-3-yl)-1-oxo-3,5,6,7-tetrahydropyrrolo[3,4-f]isoindol-2(1H)-yl)piperidine-2,6-dione] | 10 to 100
4 | C[C@@H]1Cc2c([nH]c3ccccc23)[C@@H](c2c(F)cc(N3CC4(CCCN(CC(=O)N5Cc6cc7c(cc6C5)C(=O)N(C5CCC(=O)NC5=O)C7)C4)C3)cc2F)N1CC(F)F (stereo partly drawn) [E 106, 3-(6-(2-(2-(4-((1R,3R)-2-(2,2-difluoroethyl)-3-methyl-2,3,4,9-tetrahydro-1H-pyrido[3,4-b]indol-1-yl)-3,5-difluorophenyl)-2,6-diazaspiro[3.5]nonan-6-yl)acetyl)-1-oxo-3,5,6,7-tetrahydropyrrolo[3,4-f]isoindol-2(1H)-yl)piperidine-2,6-dione] | 10 to 100
5 | C[C@@H]1Cc2c([nH]c3ccccc23)[C@@H](c2c(F)cc(N3CCC4(CCN(CC(=O)N5Cc6cc7c(cc6C5)C(=O)N(C5CCC(=O)NC5=O)C7)CC4)C3)cc2F)N1CC(F)F (stereo partly drawn) [E 108, 3-(6-(2-(2-(4-((1R,3R)-2-(2,2-difluoroethyl)-3-methyl-2,3,4,9-tetrahydro-1H-pyrido[3,4-b]indol-1-yl)-3,5-difluorophenyl)-2,8-diazaspiro[4.5]decan-8-yl)acetyl)-1-oxo-3,5,6,7-tetrahydropyrrolo[3,4-f]isoindol-2(1H)-yl)piperidine-2,6-dione] | < 10

Now from value to molecule:

Row | DC50 [nM] | SMILES
6 | < 10 | C[C@@H]1Cc2c([nH]c3ccccc23)[C@@H](c2c(F)cc(N3CCC4(CC3)CC(C(=O)N3CCC(N5Cc6cc7c(cc6C5)C(=O)N(C5CCC(=O)NC5=O)C7=O)CC3)C4)cc2F)N1CC(F)F (stereo partly drawn) [E 100, 6-(1-(7-(4-((1R,3R)-2-(2,2-difluoroethyl)-3-methyl-2,3,4,9-tetrahydro-1H-pyrido[3,4-b]indol-1-yl)-3,5-difluorophenyl)-7-azaspiro[3.5]nonane-2-carbonyl)piperidin-4-yl)-2-(2,6-dioxopiperidin-3-yl)-6,7-dihydropyrrolo[3,4-f]isoindole-1,3(2H,5H)-dione]
7 | > 100 | C[C@@H]1Cc2c([nH]c3ccccc23)[C@@H](c2c(F)cc(N3CCC(CC(=O)N4Cc5cc6c(cc5C4)C(=O)N(C4CCC(=O)NC4=O)C6)CC3)cc2F)N1CC(F)F (stereo partly drawn) [E 104, 3-(6-(2-(1-(4-((1R,3R)-2-(2,2-difluoroethyl)-3-methyl-2,3,4,9-tetrahydro-1H-pyrido[3,4-b]indol-1-yl)-3,5-difluorophenyl)piperidin-4-yl)acetyl)-1-oxo-3,5,6,7-tetrahydropyrrolo[3,4-f]isoindol-2(1H)-yl)piperidine-2,6-dione]
8 | > 100 | C[C@@H]1Cc2c([nH]c3ccccc23)[C@@H](c2c(F)cc(N3CC4(CCCN(CC(=O)N5Cc6cc7c(cc6C5)C(=O)N(C5CCC(=O)NC5=O)C7=O)C4)C3)cc2F)N1CC(F)F (stereo partly drawn) [E 105, 6-(2-(2-(4-((1R,3R)-2-(2,2-difluoroethyl)-3-methyl-2,3,4,9-tetrahydro-1H-pyrido[3,4-b]indol-1-yl)-3,5-difluorophenyl)-2,6-diazaspiro[3.5]nonan-6-yl)acetyl)-2-(2,6-dioxopiperidin-3-yl)-6,7-dihydropyrrolo[3,4-f]isoindole-1,3(2H,5H)-dione]
9 | < 10 | C[C@@H]1Cc2c([nH]c3ccccc23)[C@@H](c2c(F)cc(N3CCC4(CCN(CC(=O)N5Cc6cc7c(cc6C5)C(=O)N(C5CCC(=O)NC5=O)C7=O)CC4)C3)cc2F)N1CC(F)F (stereo partly drawn) [E 107, 6-(2-(2-(4-((1R,3R)-2-(2,2-difluoroethyl)-3-methyl-2,3,4,9-tetrahydro-1H-pyrido[3,4-b]indol-1-yl)-3,5-difluorophenyl)-2,8-diazaspiro[4.5]decan-8-yl)acetyl)-2-(2,6-dioxopiperidin-3-yl)-6,7-dihydropyrrolo[3,4-f]isoindole-1,3(2H,5H)-dione]
10 | < 10 | C[C@@H]1Cc2c([nH]c3ccccc23)[C@@H](c2c(F)cc(N3CCC(N4CCN(C(=O)CN5Cc6cc7c(cc6C5)C(=O)N(C5CCC(=O)NC5=O)C7=O)CC4)CC3)cc2F)N1CC(F)F (stereo partly shown) [E 109]
11 | > 100 | C[C@@H]1Cc2c([nH]c3ccccc23)[C@@H](c2c(F)cc(N3CCC(N4CCC(C(=O)N5Cc6cc7c(cc6C5)C(=O)N(C5CCC(=O)NC5=O)C7=O)CC4)C3)cc2F)N1CC(F)F (stereo partly drawn) [E 110, 6-(1-(1-(4-((1R,3R)-2-(2,2-difluoroethyl)-3-methyl-2,3,4,9-tetrahydro-1H-pyrido[3,4-b]indol-1-yl)-3,5-difluorophenyl)pyrrolidin-3-yl)piperidine-4-carbonyl)-2-(2,6-dioxopiperidin-3-yl)-6,7-dihydropyrrolo[3,4-f]isoindole-1,3(2H,5H)-dione]
12 | < 10 | C[C@@H]1Cc2c([nH]c3ccccc23)[C@@H](c2c(F)cc(N3CCC4(CC3)CN(C(=O)CN3Cc5cc6c(cc5C3)C(=O)N(C3CCC(=O)NC3=O)C6=O)C4)cc2F)N1CC(F)F (stereo partly drawn) [E 111, 6-(2-(7-(4-((1R,3R)-2-(2,2-difluoroethyl)-3-methyl-2,3,4,9-tetrahydro-1H-pyrido[3,4-b]indol-1-yl)-3,5-difluorophenyl)-2,7-diazaspiro[3.5]nonan-2-yl)-2-oxoethyl)-2-(2,6-dioxopiperidin-3-yl)-6,7-dihydropyrrolo[3,4-f]isoindole-1,3(2H,5H)-dione]
13 | < 10 | C[C@@H]1Cc2c([nH]c3ccccc23)[C@@H](c2c(F)cc(N3CCC4(CCN(C(=O)CN5Cc6cc7c(cc6C5)C(=O)N(C5CCC(=O)NC5=O)C7=O)CC4)CC3)cc2F)N1CC(F)F (stereo partly drawn) [E 112, 6-(2-(9-(4-((1R,3R)-2-(2,2-difluoroethyl)-3-methyl-2,3,4,9-tetrahydro-1H-pyrido[3,4-b]indol-1-yl)-3,5-difluorophenyl)-3,9-diazaspiro[5.5]undecan-3-yl)-2-oxoethyl)-2-(2,6-dioxopiperidin-3-yl)-6,7-dihydropyrrolo[3,4-f]isoindole-1,3(2H,5H)-dione]
